Positions of bridges follow the written chain, without caps; N, C: chain ends. Non-standard residues stand in square brackets, D forms with d. Residues, ends and D or L forms follow the SMILES beside them. Pen = CC(C)(S)[C@H](N)C(=O)O; Orn = NCCC[C@H](N)C(=O)O; Ac5c = NC1(C(=O)O)CCCC1; Aib = CC(C)(N)C(=O)O
Legend:
[1] = test system: KB (Oral); test: three day MTT cytotoxicity assay, KB; format: cell-based, human; settings: 72 hours
Method: (§1) SEQ ID NO: 5 and SEQ ID NO: 7 were tested for cytotoxicity against 6 human tumor cell lines. Briefly, a three day MTT cytotoxicity assay was performed, which is based on the principle of uptake of MTT (3-(4,5-dimethylthiazol-2-yl)-2,5-diphenyl tetrazolium bromide), a tetrazolium salt, by the metabolically active cells where it is metabolized by active mitochondria into a blue colored formazan product that is read spectrophoto-metrically. MTT was dissolved in phosphate buffered saline with a pH of 7.4 to obtain an MTT concentration of 5 mg/ml; the resulting mixture was filtered through a 0.22 micron filter to sterilize and remove a small amount of insoluble residue. For each type of tumor cell, 20,000 to 50,000 cells were seeded in a 96-well culture plate and incubated with the drug in a CO2 incubator for 72 hours. The final concentration range of SEQ ID NO: 5 and SEQ ID NO: 7 was 1 nM to 10 μM. The drug was added at time 0, 24 and 48 hours. Control cells not treated with the drug were similarly incubated. The assay was terminated after 72 hours by adding 100 ug (20 ul) of MTT to each well, then incubating for additional one hour, and finally adding 50 ul of 10% SDS-0.01N HCl to each well to lyse the cells and dissolve formazan. After incubating for one hour, the plate was read spectrophotometrically at 540 nm and the cytotoxicity percentage calculated. The following Tables 1 and 2 show the dose response of SEQ ID NO: 5 and SEQ ID NO: 7 respectively along with their respective ED50 values on different tumor cell lines.

[2] = test system: trypsin; test: trypsin digestion of the polypeptide; format: in vitro ADME; settings: trypsin 1:25 w/w, 37° C., pH 8.0-8.5
Method: On controlled digestion of the polypeptide peptide (SEQ ID NO:5), with enzyme trypsin, for ˜15 minutes, 3 major peaks were identifiable on analytical HPLC.
Briefly, the peptide was weighed, dissolved in NH4HCO3 buffer (pH 8.0) and mixed with freshly made enzyme trypsin (1 mg/ml in water) in a ratio of 1:25 (w/w) of enzyme: substrate, according to published protocol (Ref.: Methods in Mol. Bio., Vol. 32, Basic protein and peptide protocols, Enzymatic methods for cleaving proteins). The digestion mixture was incubated at 37° C. Aliquots were taken at different time points and analyzed on analytical HPLC (Shimadzu, Japan). The 15′ enzyme digest sample was picked up for analysis by MALDI-MS.

[3] = test system: MiaPaCa.2 (Pancreas); test: three day MTT cytotoxicity assay, MiaPaCa.2; format: cell-based, human; settings: 72 hours
Method: as §1

[4] = test system: MCF-7 (Breast); test: three day MTT cytotoxicity assay, MCF-7; format: cell-based, human; settings: 72 hours
Method: as §1

[5] = test system: MOLT-4 (Leukemia); test: three day MTT cytotoxicity assay, MOLT-4; format: cell-based, human; settings: 72 hours
Method: as §1

[6] = test system: PTC (colon) tumor xenografts; test: antitumor activity on PTC (colon) tumor xenografts grown in nude mice; format: in vivo, Balb/c athymic mice; settings: 50 μg twice a day (total 100 μg), 14 days, compared to untreated mice
Method: PTC (colon) tumor xenografts were initiated in Balb/c athymic mice by subcutaneous inoculation of a single cell suspension of PTC cells(15×10^6 cells/[…]). When the average tumor volume reached around 2000 mm^3 the tumor-bearing mice were divided into three groups of 3 animals each. Two groups were randomly assigned for SEQ ID NO: 5 and SEQ ID NO: 7 treatment while the third group served as control. SEQ ID NO: 5 and SEQ ID NO:7 were prepared at a concentration of 250 μg/ml so as to deliver a dose of 50 μg per 200 μl. The injections were given twice a day at 12 hour intervals so as to deliver a total dose of 100 μg. The treatment was continued daily for a period of 14 days. The anti-tumor activity of SEQ ID NO: 5 and SEQ ID NO: 7 was monitored by measuring tumor volumes every fourth day and calculating volumes using the formula 0.4×W^2×L (W=smaller dia, L=larger dia,).

[7] = test system: PTC (Colon); test: three day MTT cytotoxicity assay, PTC; format: cell-based, human; settings: 72 hours
Method: as §1

[8] = test system: L132 (Lung); test: three day MTT cytotoxicity assay, L132; format: cell-based, human; settings: 72 hours
Method: as §1

Structure (SMILES) | Percent cytotoxicity ([1]; 1 nM) | Percent cytotoxicity ([1]; 10 nM) | Percent cytotoxicity ([1]; 100 nM) | Percent cytotoxicity ([1]; 1 μM) | Percent cytotoxicity ([1]; 10 μM) | Percent cytotoxicity ([3]; 1 nM) | Percent cytotoxicity ([3]; 10 nM) | Percent cytotoxicity ([3]; 100 nM) | Percent cytotoxicity ([3]; 1 μM) | Percent cytotoxicity ([3]; 10 μM) | Percent cytotoxicity ([4]; 1 nM) | Percent cytotoxicity ([4]; 10 nM) | Percent cytotoxicity ([4]; 100 nM) | Percent cytotoxicity ([4]; 1 μM) | Percent cytotoxicity ([4]; 10 μM) | Percent cytotoxicity ([5]; 1 nM) | Percent cytotoxicity ([5]; 10 nM) | Percent cytotoxicity ([5]; 100 nM) | Percent cytotoxicity ([5]; 1 μM) | Percent cytotoxicity ([5]; 10 μM) | further results
CSCC[C@H](NC(=O)[C@H](CC(C)C)NC(=O)[C@H](CCCCN)NC(=O)[C@H](CCCCN)NC(=O)C1(NC(=O)[C@H](CC(C)C)NC(=O)[C@@H](Cc2c[nH]c3ccccc23)NC(=O)[C@H](Cc2ccccc2)NC(=O)[C@@H](Cc2c[nH]c3ccccc23)NC(=O)[C@H](CCC(N)=O)NC(=O)[C@@H](Cc2ccccc2)NC(=O)[C@@H]2CCCN2C(=O)[C@H](CCCCN)NC(=O)[C@@H]2CCCN2C(=O)[C@@H](CCCNC(=N)N)NC(=O)[C@H](CCCCN)NC(=O)[C@H](CCCCN)NC(=O)[C@@H](NC(=O)[C@H]2NC(=O)C3(CCCC3)NC(=O)[C@H](CCCN)NC(=O)[C@@H](Cc3c[nH]c4ccccc34)NC(=O)[C@H](Cc3ccc(O)cc3)NC(=O)[C@@H](NC(=O)[C@H](N)Cc3ccccc3)CSSC2(C)C)[C@@H](C)O)CCCC1)C(=O)N[C@@H](Cc1ccc(O)cc1)C(=O)N1CCC[C@H]1C(=O)N[C@H](C(=O)N[C@@H](Cc1ccc(O)cc1)C(=O)N[C@@H](CC(C)C)C(=O)N[C@@H](CCCCN)C(=O)N[C@@H](CCCCN)C(=O)N[C@H](Cc1ccccc1)C(=O)N[C@@H](CCC(N)=O)C(=O)N[C@@H](Cc1c[nH]c2ccccc12)C(=O)N[C@@H](C)C(=O)N[C@H](C(=O)NC(C)(C)C(=O)N[C@@H](Cc1c[nH]cn1)C(=O)N[C@@H](CC(C)C)C(N)=O)C(C)C)[C@@H](C)O [SEQ ID NO: 5, P4-Lys-Lys-P3-Lys-Lys-P1-Lys-P2] (H-[dF]CY[dW][Orn][Ac5c][Pen]TKK[dR]PKP[dF]Q[dW]F[dW]L[Ac5c]KKLMYPTYLKK[dF]QWAV[Aib]HL-NH2; disulfide 2-7) | 10.6 ± 1.2 | 18.2 ± 1.9 | 30.7 ± 3.9 | 43.1 ± 5.3 | 98.3 ± 5.7 | 24.2 ± 2.7 | 37.8 ± 4.6 | 48.2 ± 4.8 | 59.6 ± 4.9 | 84.5 ± 6.3 | 29.7 ± 3.8 | 28.2 ± 4.3 | 35.3 ± 4.8 | 59.4 ± 4.8 | 85.4 ± 5.0 | 10.4 ± 0.7 | 18.7 ± 1.9 | 34.7 ± 4.7 | 54.3 ± 5.2 | 94.5 ± 6.1 | time in which the polypeptide disappeared completely on incubation with trypsin [2]: ~5 h; Tumor regression [6]: 73.7%; Percent cytotoxicity ([7]; 1 nM): 16.5 ± 1.6; Percent cytotoxicity ([7]; 10 nM): 14.2 ± 2.2; Percent cytotoxicity ([7]; 100 nM): 16.8 ± 1.0; Percent cytotoxicity ([7]; 1 μM): 21.7 ± 2.9; Percent cytotoxicity ([7]; 10 μM): 27.9 ± 2.8; Percent cytotoxicity ([8]; 1 nM): 20.5 ± 3.2; Percent cytotoxicity ([8]; 10 nM): 21.5 ± 3.9; Percent cytotoxicity ([8]; 100 nM): 22.2 ± 2.8; Percent cytotoxicity ([8]; 1 μM): 28.2 ± 3.1; Percent cytotoxicity ([8]; 10 μM): 48.8 ± 3.6
CSCC[C@H](NC(=O)[C@H](CC(C)C)NC(=O)[C@H](CCCCN)NC(=O)[C@H](CCCCN)NC(=O)[C@H](CC(C)C)NC(=O)[C@H](Cc1c[nH]cn1)NC(=O)C(C)(C)NC(=O)[C@@H](NC(=O)[C@H](C)NC(=O)[C@H](Cc1c[nH]c2ccccc12)NC(=O)[C@H](CCC(N)=O)NC(=O)[C@@H](Cc1ccccc1)NC(=O)[C@H](CCCCN)NC(=O)[C@H](CCCCN)NC(=O)C1(NC(=O)[C@H](CC(C)C)NC(=O)[C@@H](Cc2c[nH]c3ccccc23)NC(=O)[C@H](Cc2ccccc2)NC(=O)[C@@H](Cc2c[nH]c3ccccc23)NC(=O)[C@H](CCC(N)=O)NC(=O)[C@@H](Cc2ccccc2)NC(=O)[C@@H]2CCCN2C(=O)[C@H](CCCCN)NC(=O)[C@@H]2CCCN2C(=O)[C@H](N)CCCNC(=N)N)CCCC1)C(C)C)C(=O)N[C@@H](Cc1ccc(O)cc1)C(=O)N1CCC[C@H]1C(=O)N[C@H](C(=O)N[C@@H](Cc1ccc(O)cc1)C(=O)N[C@@H](CC(C)C)C(=O)N[C@@H](CCCCN)C(=O)N[C@@H](CCCCN)C(=O)N[C@H](Cc1ccccc1)C(=O)N[C@H]1CSSC(C)(C)[C@@H](C(=O)N[C@H](C(N)=O)[C@@H](C)O)NC(=O)C2(CCCC2)NC(=O)[C@H](CCCN)NC(=O)[C@@H](Cc2c[nH]c3ccccc23)NC(=O)[C@H](Cc2ccc(O)cc2)NC1=O)[C@@H](C)O [SEQ ID NO: 7, P3-Lys-Lys-P2-Lys-Lys-P1-Lys-P4] (H-[dR]PKP[dF]Q[dW]F[dW]L[Ac5c]KK[dF]QWAV[Aib]HLKKLMYPTYLKK[dF]CY[dW][Orn][Ac5c][Pen]T-NH2; disulfide 34-39) | 13.9 ± 1.9 | 23.9 ± 1.8 | 34.8 ± 3.9 | 54.3 ± 5.8 | 82.8 ± 5.4 | 24.9 ± 2.8 | 22.9 ± 1.4 | 23.8 ± 2.9 | 28.8 ± 1.9 | 27.8 ± 2.8 | 18.9 ± 2.0 | 19.0 ± 0.5 | 22.9 ± 1.4 | 23.6 ± 2.9 | 31.4 ± 3.7 | 23.7 ± 1.6 | 34.9 ± 4.9 | 46.0 ± 4.9 | 54.3 ± 4.9 | 88.5 ± 6.8 | Tumor regression [6]: 48.7%; Percent cytotoxicity ([7]; 1 nM): 13.5 ± 1.8; Percent cytotoxicity ([7]; 10 nM): 18.7 ± 0.5; Percent cytotoxicity ([7]; 100 nM): 23.5 ± 3.5; Percent cytotoxicity ([7]; 1 μM): 28.5 ± 2.1; Percent cytotoxicity ([7]; 10 μM): 17.9 ± 1.9; Percent cytotoxicity ([8]; 1 nM): 9.0 ± 0.6; Percent cytotoxicity ([8]; 10 nM): 10.4 ± 0.4; Percent cytotoxicity ([8]; 100 nM): 13.3 ± 0.1; Percent cytotoxicity ([8]; 1 μM): 14.9 ± 0.6; Percent cytotoxicity ([8]; 10 μM): 23.1 ± 0.9

— patent US6949513B2, “Polypeptides of covalently linked synthetic bioactive peptide analog(s) for treatment of cancer” (Dabur Research Foundation, priority 2001, dated 2005)
